Assay results from paper PMC4888613, “Antifilarial activity of diterpenoids from Taxodium distichum” (Parasites & Vectors, 2016).
Where “and” joins values, the source holds several entries; their conditions need not be identical. Equal values may be shown once. Entries after “also recorded” stand apart in the source; their conditions may differ. Read-outs that look alike come from different tables or passages of the source.

Assays:
[1] = system: Brugia malayi adult worms (AW); assay: MTT reduction assay on adult female worms; assay type: cell-based; conditions: for inhibition at 125 µg/mL: Brugia malayi, read-out: Mean % inhibition in MTT reduction by AW
Protocol: (§1) Motility and 3-(4,5-dimethylthiazol-2-yl)-2,5 diphenyltetrazolium bromide (MTT; Sigma-Aldrich, USA) reduction assays that indicate viability of the parasites were used. Test samples and ivermectin (purity 95 %; Sigma-Aldrich, USA) were dissolved in dimethyl sulfoxide (DMSO; Sigma-Aldrich, USA); the final concentration of DMSO in the incubation medium Hanks Balanced Salt Solution (HBSS; Sigma-Aldrich, USA) containing 100 U/ml penicillin and 100 μg/ml streptomycin (Sigma-Aldrich, USA), was kept ≤ 0.1 %. Diethylcarbamazine-citrate (DEC-C; purity 100 %; Sigma-Aldrich, USA) solution was prepared in sterile distilled water. HBSS containing DMSO (≤ 0.1 %) alone was used as negative control.
(§2) In vitro efficacy of the test agents and reference drugs was assessed on mf (40–50 mf/100 μl/well) in a 96-well cell culture plate (Nunc, Denmark) and on adult female worms (1 worm/ml/well) in a 48-well plate (Nunc, Denmark). The assays were run in triplicates.
MTT-reduction assay was carried out using adult worms as described elsewhere. The viability of the treated worms was assessed by calculating per cent inhibition in MTT-reduction potential of the treated worms over DMSO treated control parasites. A hundred percent inhibition in motility of female parasites or mf and or ≥ 50 % inhibition in MTT-reduction potential of the treated female parasites were considered to indicate positive antifilarial activity.
(§3) IC50 and CC50 of the test agents were determined using the method described elsewhere. […] The experiments were repeated twice.

[2] = system: Brugia malayi adult worms (AW); assay: In vitro motility assay on adult female worms; assay type: cell-based; conditions: for IC50: read-out: IC50 for AW in MA
Protocol: (§4) Microfilariae and adult worms were harvested from p.c. of the M. unguiculatus harbouring approximately 5–6 month-old B. malayi infection. The parasites were washed thoroughly with HBSS (pH 7.2) containing antibiotics (penicillin: 100 U/ml; streptomycin: 100 μg/ml) and used for the present study.
as §1, §2
(§5) Motility assay using mf and adult worms was carried out as described elsewhere. Changes in parasite motility was assessed under a microscope and scored as: 0 = dead (100 %); 1-4 = loss of motility (1 = 75 %; 2 = 50 %; 3 = 25 %; and 4 = no loss of motility). The experiment was repeated twice.
as §3
(§6) Data were transferred to a graphic program (MS Excel) and IC50 and CC50 were calculated by linear interpolation between the two concentrations above and below 50 % inhibition.

CC50 cytotoxicity assay = assay type: cell-based, African green monkey; conditions: African green monkey
Protocol: (§7) The assay was run in replicates in each of the two independent experiments.
as §6

[3] = system: Brugia malayi microfilariae (Mf); assay: In vitro motility assay on microfilariae; assay type: cell-based; conditions: for IC50: read-out: IC50 for Mf in MA
Protocol: as §4, §1, §2, §5, §3, §6

Brugia malayi [4] = assay: B. malayi-M. unguiculatus model (primary screening, intraperitoneal adult worm transplant); assay type: in vivo, Meriones unguiculatus; conditions: for Effect on mf in peritoneal cavity / Sterilised female worm count / Worms recovered, Total / Sterilised female worms (%) (embryostatic activity) / Total worms, % reduction over untreated (macrofilaricidal activity): doses as in Table 2; for Sterilised female worm count / Worms recovered, Total / Worms recovered, Female / Worms recovered, Male: mean ± SD; for Sterilised female worm count / Worms recovered, Total / Worms recovered, Female / Worms recovered, Male / Sterilised female worms (%) (embryostatic activity) / Total worms, % reduction over untreated (macrofilaricidal activity): day 56 p.i.t.; for Worms recovered, Total: A001: the 5 of 6 animals without worms; for Worms recovered, Female / Worms recovered, Male: x 5 days: A001 500 mg/kg p.o., K003/K004 100, ivermectin 1, DEC-C 25 mg/kg s.c.; for Effect on adult worms: ivermectin 1 mg/kg
From the text: (§8) Meriones unguiculatus bearing intraperitoneally instilled adult worms and M. coucha inoculated with B. malayi L3 and showing microfilaremia in peritoneal cavity on day 3 post adult worm transplantation (p.a.t.) and progressive rise in microfilaraemia in peripheral circulation from day 120–180 post larval inoculation (p.l.i.), were employed as primary and secondary screening models, respectively, for assaying the antifilarial efficacy of the test agents.
(§9) The test agents were pulverised to fine powder and suspended in 1 % gum acacia/0.1 % Tween-80 in sterile distilled water. DEC-C and ivermectin were prepared in distilled water and ≤ 0.1 % Tween-80, respectively. The suspensions/solutions of the agents were prepared daily before administration to the animals.
(§10) Compounds K003 and K004 were given at 100 mg/kg body weight, subcutaneously (s.c.). The reference drugs DEC-C and ivermectin were administered to M. unguiculatus at 25 and 1 mg/kg body weight, respectively, while the M. coucha model received DEC-C at 50 mg/kg, body weight. […] Infected animals treated with vehicle only were used as control.
Male M. unguiculatus 8–10 weeks old (40–45 g) transplanted intraperitoneally with freshly isolated adult worms from B. malayi-infected M. unguiculatus were used for primary screening of test agents. On day 3 p.a.t., the peritoneal fluid was aspirated and checked for the presence of mf. The treatment was started on day 7/8 p.a.t. and continued for 5 consecutive days. On day 7/8 post-initiation of treatment (p.i.t) and thereafter at fortnightly intervals, the peritoneal fluid was examined under microscope to assess the condition of mf. All animals were killed on day 56 p.i.t. and parasites were collected from p.c., counted and examined for their viability and motility under microscope.
(§11) As a standard practice (following an accepted protocol) all the M. unguiculatus and M. coucha treated with test agents and vehicle were observed daily for their general health and behaviour (cage side observations) throughout the course of treatment and thereafter till termination of the experiment.
(§12) Microfilaricidal efficacy of the test agents was evaluated at each time point p.i.t and expressed as percent change in mf count over the pretreatment level.
(§13) Macrofilaricidal/adulticidal efficacy of the agents was assessed by calculating percent reduction in adult worm recovery in treated animals over untreated animals. Embryostatic/embryotoxic effect of agents was assessed by examining the uterine contents of female worms using the method described elsewhere and the percent of sterilised worms was determined from total female worms recovered from the treated and control animals.

Brugia malayi [5] = assay: B. malayi-M. coucha model (secondary screening, L3 induced infection); assay type: in vivo, Mastomys coucha; conditions: for Macrofilaricidal activity (reduction in adult worm recovery over untreated control): DEC-C 50 mg/kg s.c. x 5 days, animals killed day 91 p.i.t.; for Sterile female worms: of surviving female parasites, day 91 p.i.t., control about 28 %; for Course of microfilaraemia: up to day 91 p.i.t.; for Regression line of microfilarial counts against days: trend of post-treatment microfilaraemia in Fig. 5a
From the text: as §8, §9, §10
Mastomys coucha harbouring 5–7 month-old (L3 induced) B. malayi infection and showing progressive rise in microfilaraemia was used as secondary screening model. Mf count was recorded in peripheral blood (10 μl tail blood) just before initiation of the treatment (day 0), on day 7/8 and thereafter at weekly intervals till day 91 p.i.t. The animals were killed on day 91 p.i.t.
as §11, §12, §13
Statistical analyses were carried out using GraphPad Prism 3.0 software. Results were expressed as the mean ± standard deviation (S.D.) of data obtained from 4–6 animals in two experiments. The data were analysed by Student’s ‘t’ test and one-way ANOVA followed by Tukey’s multiple comparison test, as appropriate. Differences with P < 0.05 were considered significant. The microfilaricidal efficacy of antifilarials was determined by comparing the slopes of control, K003 and DEC treated groups. The slopes of the regression line were compared by standard procedure.

VERO Cell line C1008 = assay: CC50 cytotoxicity assay; assay type: cell-based, African green monkey; conditions: reference drugs, values in μM
Protocol: as §7, §6

[6] = over DMSO control, test conc.: 500 μg/ml extract/fractions, 125 μg/ml compounds, 1000 μM DEC, 10/20 μM ivermectin
[7] = 100 % reduction in motility (death) of adult worms
[8] = Brugia malayi, 50 % inhibition in motility of adult worms
[9] = VERO C1008 cells (African green monkey kidney cells), concentration at which 50 % of VERO cells are killed, read-out: CC50
[10] = 100 % reduction in motility (death) of microfilariae
[11] = Brugia malayi, 50 % inhibition in motility of microfilariae
[12] = Brugia malayi, reference drugs, values in μM

| Compound | inhibition at 125 µg/mL [1, 6] [%] | LC100 for AW in MA [2, 7] [µg/mL] | IC50 [2, 8] [µg/mL] | CC50 (CC50 cytotoxicity assay; [9]) [µg/mL] | LC100 for Mf in MA [3, 10] [µg/mL] | IC50 [3, 11] [µg/mL] | Effect on mf in peritoneal cavity (Brugia malayi [4]) | Sterilised female worm count (Brugia malayi [4]) | Worms recovered, Total (Brugia malayi [4]) | Worms recovered, Female (Brugia malayi [4]) | Worms recovered, Male (Brugia malayi [4]) | Mean % inhibition in MTT reduction by AW [1, 6] [%] | Macrofilaricidal activity (reduction in adult worm recovery over untreated control) (Brugia malayi [5]) | Sterile female worms (Brugia malayi [5]) [%] | Course of microfilaraemia (Brugia malayi [5]; peripheral blood) | Regression line of microfilarial counts against days (Brugia malayi [5]) | Sterilised female worms (%) (embryostatic activity) (Brugia malayi [4]) | Total worms, % reduction over untreated (macrofilaricidal activity) (Brugia malayi [4]) | Effect on adult worms (Brugia malayi [4]; DEC-C 25 mg/kg s.c. x 5 days) | LC100 for AW in MA ([2]; reference drugs, values in μM) [µM] | other results |
| --- | --- | --- | --- | --- | --- | --- | --- | --- | --- | --- | --- | --- | --- | --- | --- | --- | --- | --- | --- | --- | --- |
| C=C1CCC2C(C)(C)C(OC(C)=O)CC[C@@]2(C)C1CC/C(C)=C/C(=O)O (some centres unmarked) [Compound K001, 3-Acetoxylabda-8(20),13-diene-15-oic acid] | 76.9 | 62.50 | 41.2 | 697 | 250 | 88.4 | – | – | – | – | – | – | – | – | – | – | – | – | – | – | – |
| CC[C@H](CC[C@@H](C)[C@H]1CC[C@H]2[C@@H]3CC=C4C[C@@H](O)CC[C@]4(C)[C@H]3CC[C@]12C)C(C)C [Compound K002, Beta-sitosterol] | – | > 250 | – | – | > 250 | – | – | – | – | – | – | – | – | – | – | – | – | – | – | – | inhibition at 125 µg/mL [1]: 38%; IC50 ([2]; Brugia malayi): > 250 µg/mL; IC50 ([3]; Brugia malayi): > 250 µg/mL |
| C=C1CCC2C(C)(C)CCC[C@@]2(C)C1CC/C(C)=C/C(=O)O (some centres unmarked) [Compound K003, labda-8(20),13-diene-15-oic acid] | > 80 | 125 | 74.3 | 180 | 31.25 | 18.6 | ineffective against mf | 8.00 ± 0.71 | 8.40 ± 1.14 | 8.00 ± 0.71 | 0.40 ± 0.89 | 82.05 | ~ 54% and 53.94% | > 36 | had more or less no effect on microfilaraemia till day 42 p.i.t., but thereafter microfilaraemia stopped increasing as compared to control; also recorded: stopped any further rise in microfilaraemia after day 42 p.i.t | 183.65 ± 0.82 days | – | – | – | – | Reduction in motility of adult worms ([2]; in vitro): 100%; Reduction in motility of mf ([3]; in vitro): 100% |
| CCN(CC)C(=O)N1CCN(C)CC1 [DEC-C, Diethylcarbamazine-citrate] | – | – | – | – | – | – | did not affect mf count | 0.60 ± 0.89 | 9.20 ± 1.48 | 6.60 ± 1.14 | 2.60 ± 0.55 | – | around 26.47% | 20 | gradually increased and relapsed by day 49 p.i.t.; the count further increased rapidly and crossed the pretreatment level by day 56 p.i.t. | -21.04 + 2.95 days | (7.86 ± 11.41) % | (22.03) % | mild macrofilaricidal activity | 1000 | Effect on female reproductive potential (Brugia malayi [4]; DEC-C 25 mg/kg s.c. x 5 days): did not affect mf count or female reproductive potential; IC50 [2, 12]: 315 µM; CC50 (CC50 cytotoxicity assay): 9000 µM; Reduction in microfilarial count on day 7/8 p.i.t. (Brugia malayi [5]; DEC-C 50 mg/kg, peripheral blood): > 80%; IC50 [3, 12]: 297 µM; LC100 for Mf in MA ([3]; reference drugs, values in μM): 500 µM |
| ivermectin | – | – | – | – | – | – | did not affect mf in p.c. | 2.75 ± 0.96 | – | 6.25 ± 1.50 | 2.75 ± 0.96 | 5.80 | – | – | – | – | (44.29 ± 5.15) % | (22.43) % | mild but not statistically significant effect on adult worms | 5 | Sterilised female worms (%) (embryostatic activity) (Brugia malayi [4]; listed as ivermectin): 44%; IC50 ([2]; reference drugs, values in μM): 3.05 µM; CC50 (VERO Cell line C1008): 250 µM; LC100 for Mf in MA ([3]; reference drugs, values in μM): 2.5 µM; IC50 ([3]; reference drugs, values in μM): 1.57 µM |
